Measured values reported in ChEMBL document CHEMBL1154786, “Analgesic, anticonvulsant and anti-inflammatory activities of some synthesized benzodiazipine, triazolopyrimidine and bis-imide derivatives” (Eur J Med Chem, 2009).
Activity calls are given as the source filed them. The rule behind the calls is not given here.

Assays:
[1] = Acute toxicity in rat; assay type: organism-based; conditions: in vivo
[2] = tested on: Mus musculus; test: Analgesic activity in Webster mouse assessed as normal reaction time at 5 mg/kg, sc after 10-120 mins by hot plate assay relative to valdecoxib; assay type: functional; conditions: route subcutaneous
[3] = tested on: Mus musculus; test: Anticonvulsant activity in Webster mouse assessed as protection against yohimbine-HCl-induced clonic seizure at 5 mg/kg, ip administered 30 mins before yohimbine-HCl challenge; assay type: functional
[4] = tested on: Mus musculus; test: Anticonvulsant activity in Webster mouse assessed as protection against yohimbine-HCl-induced clonic seizure at 5 mg/kg, ip administered 30 mins before yohimbine-HCl challenge relative to carbamazepine; assay type: functional
[5] = tested on: Rattus norvegicus; test: Antiinflammatory activity in albino rat assessed as protection against carrageenan-induced paw edema at 50 mg/kg, po administered 1 hr before carrageenan challenge measured after 4 hrs; assay type: functional
[6] = tested on: Rattus norvegicus; test: Antiinflammatory activity in albino rat assessed as inhibition of increase in plasma PGE2 level at 50 mg/kg, po by EIA; assay type: functional
[7] = tested on: Rattus norvegicus; test: Antiinflammatory activity in albino rat assessed as protection against carrageenan-induced paw edema at 25 mg/kg, po administered 1 hr before carrageenan challenge measured after 4 hrs; assay type: functional
[8] = tested on: Rattus norvegicus; test: Antiinflammatory activity in albino rat assessed as inhibition of increase in plasma PGE2 level at 25 mg/kg, po by EIA; assay type: functional

Row | Compound | LD50 [1] [mg/kg] | Activity [2] [%] | ED50 ([3]; route intraperitoneal) [mg/kg] | ED50 [3] | Activity [4] | Activity [5] [%] | inhibition in vivo at 50 mg/kg [6] [%] | Activity [7] [%] | inhibition in vivo at 25 mg/kg [8] [%] | Activity ([4]; route intraperitoneal)
1 | CC1=Cc2[nH]c(=S)nc(C)c2C(c2ccccc2)C1 (stereo not given) | 1.87 | 60 | – | – | – | – | – | – | – | –
2 | NC(=O)N1c2ccccc2C=Cc2ccccc21 [CARBAMAZEPINE] | – | – | 28 | – | – | – | – | – | – | –
3 | CC1=Cc2c(c(C)nn2-c2ccccc2)C(c2ccccc2)C1 (stereo not given) | 1.92 | – | – | – | – | – | – | – | – | –
4 | CC(=O)C1C(=O)C=C(C)CC1c1ccccc1 (stereo not given) | 1.72 | – | – | – | – | – | – | – | – | –
5 | CC1=CC(c2ccccc2)Nc2n[nH]c(=S)n21 (stereo not given) | 1.8 | – | – | inactive | inactive | 42.38 | 66.8 | – | – | –
6 | CC1=Cc2c(c(=O)[nH]n2-c2ccccc2)C(c2ccccc2)C1 (stereo not given) | 1.86 | 60 | – | inactive | inactive | 64.8 | 67 | 63.9 | 54.9 | –
7 | CC1=CC(c2ccccc2)N=C(NN2C(=O)c3ccc4c5c(ccc(c35)C2=O)C(=O)N(NC2=NC(c3ccccc3)C=C(C)N2)C4=O)N1 (stereo not given) | 1.78 | 60 | 15 | – | – | 51.6 | 65 | 48.5 | 58.8 | 1.8
8 | CC1=CC(c2ccccc2)Nc2nnc(C)n21 (stereo not given) | 1.97 | – | – | – | – | – | – | – | – | –
9 | CC1=CC2=NC(=S)NC(=O)C2C(c2ccccc2)C1 (stereo not given) | 1.88 | 130 | 15 | – | – | 85.24 | 82.8 | 74.38 | 72.1 | 2.04
10 | CC1=CC(c2ccccc2)NC(=S)N1CN1CCOCC1 (stereo not given) | 1.69 | 60 | 13 | – | – | 98.41 | – | 85.84 | 90.3 | 2.3
11 | CCOC(=O)C1C(=O)C=C(C)CC1c1ccccc1 (stereo not given) | 1.74 | 60 | 50 | – | – | 60.26 | 54.5 | – | – | 0.68
12 | CC1=CC(c2ccccc2)N=C(NN2C(=O)c3cccc4cccc(c34)C2=O)N1 (stereo not given) | 1.85 | 60 | – | inactive | inactive | 93.15 | 95.6 | 87.8 | 88.7 | –
13 | CC1=CC(c2ccccc2)NC(=S)N1 (stereo not given) | 1.8 | 130 | 32 | – | – | 96.1 | 93.5 | 84.52 | 78.4 | 1
14 | C[C@]12C=CC(=O)C=C1CC[C@@H]1[C@@H]2[C@@H](O)C[C@@]2(C)[C@H]1CC[C@]2(O)C(=O)CO [PREDNISOLONE] | 1.62 | – | – | – | – | 92 | 91 | 81 | 77 | –
15 | CC1=CC(c2ccccc2)Nc2ncnn21 (stereo not given) | 1.75 | 60 | 10 | – | – | 96.05 | 94.6 | 85.25 | 80.7 | 2.51
16 | CC1=CC(c2ccccc2)N=C(n2cc(C)c(C)n2)N1 (stereo not given) | 1.79 | – | – | – | – | – | – | – | – | –
17 | CC1=CC(c2ccccc2)NC(NN)N1 (stereo not given) | 1.88 | – | – | – | – | – | – | – | – | –
18 | CC1=CC(c2ccccc2)N=C(Nn2c(=O)c3cc4c(=O)n(NC5=NC(c6ccccc6)C=C(C)N5)c(=O)c4cc3c2=O)N1 (stereo not given) | 1.68 | – | – | – | – | – | – | – | – | –
